# Measurements: US20170348375A1, “DISLODGEMENT AND RELEASE OF HSC FROM THE BONE MARROW STEM CELL NICHE USING ALPHA9 INTEGRIN ANTAGONISTS” (COMMONWEALTH SCIENTIFIC AND INDUSTRIAL RESEARCH ORGANISATION, priority 2014, published 2017)
# Like-named read-outs stand apart in the source and are kept apart here.
# Experiments:
# human integrin α9β1 = molecular target: T1, human integrin α9β1 (Homo sapiens, UniProt P05556+Q13797); test: Saturation binding to α9β1 over-expressing LN18 cells (flow cytometry); conditions: for Kd: α9β1 LN18 cells, read-out: Kd (dissociation constant), α9β1
# T1 construct: expressed in transfected cells; host or cells: human glioblastoma LN18 (ATCC CRL-2610), retrovirally transduced; α4 silenced with pSM2c-shITGA4
# T1 sequence (Q13797 30-1035): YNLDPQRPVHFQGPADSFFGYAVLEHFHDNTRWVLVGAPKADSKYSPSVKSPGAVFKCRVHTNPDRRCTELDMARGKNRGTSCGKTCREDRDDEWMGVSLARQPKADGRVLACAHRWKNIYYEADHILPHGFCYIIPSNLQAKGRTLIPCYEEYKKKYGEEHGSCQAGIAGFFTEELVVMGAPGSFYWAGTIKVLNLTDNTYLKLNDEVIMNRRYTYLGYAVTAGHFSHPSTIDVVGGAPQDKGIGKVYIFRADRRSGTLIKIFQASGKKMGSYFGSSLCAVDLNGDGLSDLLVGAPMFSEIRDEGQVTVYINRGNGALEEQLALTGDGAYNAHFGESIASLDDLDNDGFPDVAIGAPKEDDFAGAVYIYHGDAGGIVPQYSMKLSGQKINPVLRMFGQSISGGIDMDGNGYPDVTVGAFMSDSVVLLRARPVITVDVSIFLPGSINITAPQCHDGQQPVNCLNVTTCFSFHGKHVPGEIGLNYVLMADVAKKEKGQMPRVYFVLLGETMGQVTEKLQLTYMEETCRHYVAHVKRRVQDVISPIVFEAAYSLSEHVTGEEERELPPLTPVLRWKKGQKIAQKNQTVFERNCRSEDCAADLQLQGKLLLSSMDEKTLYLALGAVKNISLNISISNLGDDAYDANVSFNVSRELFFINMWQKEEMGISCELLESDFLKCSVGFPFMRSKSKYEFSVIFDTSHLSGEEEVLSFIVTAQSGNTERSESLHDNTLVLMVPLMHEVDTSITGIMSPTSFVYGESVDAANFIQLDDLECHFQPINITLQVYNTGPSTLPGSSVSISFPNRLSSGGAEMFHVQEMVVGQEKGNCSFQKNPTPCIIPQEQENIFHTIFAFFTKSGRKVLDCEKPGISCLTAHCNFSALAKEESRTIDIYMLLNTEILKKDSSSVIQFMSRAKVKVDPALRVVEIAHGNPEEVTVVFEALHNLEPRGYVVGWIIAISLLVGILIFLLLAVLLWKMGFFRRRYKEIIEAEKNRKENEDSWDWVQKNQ
# T1 sequence (P05556 21-798): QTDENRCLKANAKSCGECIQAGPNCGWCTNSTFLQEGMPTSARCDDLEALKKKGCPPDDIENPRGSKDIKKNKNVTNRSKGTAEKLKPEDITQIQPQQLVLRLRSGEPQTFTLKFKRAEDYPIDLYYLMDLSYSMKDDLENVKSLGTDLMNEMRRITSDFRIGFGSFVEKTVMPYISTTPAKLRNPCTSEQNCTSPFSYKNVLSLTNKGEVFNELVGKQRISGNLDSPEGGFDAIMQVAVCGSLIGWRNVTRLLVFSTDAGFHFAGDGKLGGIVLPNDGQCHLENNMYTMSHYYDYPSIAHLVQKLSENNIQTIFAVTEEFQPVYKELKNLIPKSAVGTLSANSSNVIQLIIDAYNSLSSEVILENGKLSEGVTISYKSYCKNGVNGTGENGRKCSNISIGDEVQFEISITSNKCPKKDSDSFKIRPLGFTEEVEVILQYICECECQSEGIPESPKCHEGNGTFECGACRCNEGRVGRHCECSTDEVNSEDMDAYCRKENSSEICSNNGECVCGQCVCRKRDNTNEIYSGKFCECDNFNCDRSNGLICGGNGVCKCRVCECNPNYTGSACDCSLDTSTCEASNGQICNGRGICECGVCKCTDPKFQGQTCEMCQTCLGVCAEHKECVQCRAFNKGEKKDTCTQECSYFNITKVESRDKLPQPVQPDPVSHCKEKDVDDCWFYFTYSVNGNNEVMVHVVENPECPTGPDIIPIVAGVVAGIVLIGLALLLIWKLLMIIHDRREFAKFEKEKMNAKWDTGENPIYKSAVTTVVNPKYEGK
# Protocol: (§1) Stable LN18 cells ((ATCC number: CRL-2610) over-expressing integrin α4β1 (LN18 α4β1) or α9β1 (LN18 α9β1)) were generated by retroviral transduction using the pMSCV-hITGA4-IRES-hITGB1 and pMSCV-hITGA9-IRES-hITGB1 vectors as previously described in J Grassinger, et al Blood, 2009, 114, 49-59 and were maintained in DMEM supplemented with 2 mM […] in 10% FBS. Transduced cells were selected by two rounds of FACS using 2.5 μg ml^−1 PE-Cy5-conjugated mouse-anti-human α4 antibody (BD Bioscience) or 20 μg ml^−1 of mouse-anti-human α9β1 antibody (Millipore) in PBS-2% FBS, followed by 0.5 μg ml^−1 of PE-conjugated goat-anti-mouse IgG (BD Bio-science). Silencing of α4 expression in LN18 and LN18 α9β1 cells was performed as described above using pSM2c-shITGA4 (Open Biosystems). α4-silenced LN18 cells (control cell line; LN18 SiA4) and LN18 α9β1 (LN18 α9β1SiA4) were negatively selected for α4 expression using FACS.
# (§2) The cells were incubated at 37° C. for 60 min, washed once with TBS-2% FBS, dry pelleted and resuspended in the relevant binding buffer for flow cytometric analysis. Mean channel fluorescence was plotted against concentration and fitted to a one-site saturation ligand binding curve using GraphPad Prism 6. The dissociation constant, Kd was determined from the curves.
# [1] = tested on: control LN18 cells (LN18 SiA4); test: Saturation binding to control LN18 cells (no integrins); set-up: species or system human; conditions: 1 mM Ca2+/Mg2+
# Protocol: as §1, §2
# α4β1 integrin = molecular target: T2, α4β1 integrin (Homo sapiens, UniProt P05556+P13612); test: On-rate and off-rate kinetics of R-BC154 binding to α4β1 LN18 cells; conditions: for kobs / kon / koff: α4β1 cells; for kobs: 50 nM, 37° C., fast phase; for kon: (kobs − koff)/50 nM
# T2 construct: expressed in transfected cells; host or cells: human glioblastoma LN18 (ATCC CRL-2610), retrovirally transduced
# T2 sequence (P13612 34-1032): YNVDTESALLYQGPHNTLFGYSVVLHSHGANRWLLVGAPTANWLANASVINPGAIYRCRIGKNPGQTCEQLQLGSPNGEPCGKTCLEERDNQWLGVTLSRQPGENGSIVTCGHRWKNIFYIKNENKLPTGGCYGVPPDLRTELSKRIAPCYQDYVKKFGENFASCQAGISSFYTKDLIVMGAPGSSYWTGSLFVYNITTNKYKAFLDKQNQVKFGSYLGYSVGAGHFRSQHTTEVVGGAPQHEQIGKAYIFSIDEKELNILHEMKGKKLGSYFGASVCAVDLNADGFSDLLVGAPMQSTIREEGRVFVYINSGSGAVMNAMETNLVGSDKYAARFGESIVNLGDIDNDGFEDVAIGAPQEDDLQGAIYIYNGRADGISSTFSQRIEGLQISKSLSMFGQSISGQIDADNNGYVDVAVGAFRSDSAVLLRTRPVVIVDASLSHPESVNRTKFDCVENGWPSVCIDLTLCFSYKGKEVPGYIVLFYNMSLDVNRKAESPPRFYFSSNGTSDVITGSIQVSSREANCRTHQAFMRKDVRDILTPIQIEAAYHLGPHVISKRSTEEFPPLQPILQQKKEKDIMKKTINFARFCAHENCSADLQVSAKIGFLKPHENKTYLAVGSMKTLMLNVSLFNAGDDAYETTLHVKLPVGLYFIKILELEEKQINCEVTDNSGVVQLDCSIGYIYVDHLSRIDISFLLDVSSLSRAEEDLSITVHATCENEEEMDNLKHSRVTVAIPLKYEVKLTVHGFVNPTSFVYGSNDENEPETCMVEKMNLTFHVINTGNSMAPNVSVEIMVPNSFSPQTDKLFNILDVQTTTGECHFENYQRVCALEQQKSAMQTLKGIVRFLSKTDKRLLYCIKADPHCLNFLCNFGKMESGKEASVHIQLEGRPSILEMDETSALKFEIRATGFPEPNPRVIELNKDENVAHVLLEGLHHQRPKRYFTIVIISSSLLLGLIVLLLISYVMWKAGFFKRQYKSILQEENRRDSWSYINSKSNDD
# T2 sequence (P05556 21-798): as the sequence (P05556 21-798) above
# Protocol: (§3) Mean channel fluorescence was plotted against time and the data was fitted to either a one-phase or two-phase exponential decay function using GraphPad Prism 6. The off-rate, koff was extrapolated from the curves.
# (§4) Eppendorf vials containing α4β1 or α9β1 LN18 cells (0.5×10^6 cells) in 50 μl TBS-2% FBS containing either 1 mM CaCl2—MgCl2 or 1 mM MnCl2 were pre-activated in a heating block for 20 min at 37° C. […] The cells were washed once TBS-2% FBS (with relevant cations), pelleted by centrifugation and resuspended (200 μl) in the relevant binding buffer for flow cytometric analysis. Mean channel fluorescence was plotted against time and the data was fitted to either a one-phase or two phase association function using GraphPad Prism 6. The observed on-rate, kobs was extrapolated from the curves and kon was calculated using […]
# α9β1 integrin = molecular target: T3, α9β1 integrin (Homo sapiens, UniProt P05556+Q13797); test: On-rate and off-rate kinetics of R-BC154 binding to α9β1 LN18 cells; conditions: for kobs: 50 nM, 37° C., fast phase; for kon: (kobs − koff)/50 nM
# T3 construct: expressed in transfected cells; host or cells: human glioblastoma LN18 (ATCC CRL-2610), retrovirally transduced; α4 silenced with pSM2c-shITGA4
# T3 sequence (Q13797 30-1035): as the sequence (Q13797 30-1035) above
# T3 sequence (P05556 21-798): as the sequence (P05556 21-798) above
# Protocol: as §3, §4
# [2] = tested on: human cord blood mononuclear cells (MNC); test: In vitro R-BC154 binding to human cord blood mononuclear cells; format: cell-based
# Protocol: Mononuclear cells (MNC) were isolated from cord blood as previously described in Nilsson, S. K. et al Blood 106, 1232-1239, (2005) and Grassinger, J. et al. Blood 114, 49-59, (2009). MNCs were incubated with a lineage antibody cocktail containing mouse anti-human CD3, CD11b, CD14, CD16, CD20, CD24, and CD235a (BD) and then treated with two rounds of Dynal sheep anti-mouse IgG beads (Invitrogen, Carlsbad, Calif.) at a ratio of 2 beads per cell for 5 min and then 10 min at 4° C. with constant rotation. Enriched MNC were stained with CD34-fluorescein isothiocyanate (FITC) CD34^+ cells purified by FACS.
# (§5) Cells were washed with cold PBS (2% F BS) and then immunolabelled as described in “Antibody Cocktails” prior to flow cytometric analysis.
# [3] = tested on: bone marrow progenitor cells (LSK) and HSC (LSKSLAM); test: In vivo bone marrow binding assay; set-up: species or system mouse
# Protocol: After 5 min, bone marrow cells were isolated as previously described in D. N. Haylock et al Stem Cells, 2007, 25, 1062-1069 and J. Grassinger, et al Cytokine, 2012, 58, 218-225. Briefly, one femur, tibia and iliac crest were excised and cleaned of muscle. After removing the epi- and metaphyseal regions, bones were flushed with PBS-2% FBS to obtain whole bone marrow, which were washed with PBS-2% FBS and then immunolabelled for flow cytometry. […] For staining progenitor cells (LSK; Lineage−Sca-1^+c-kit^+) and HSC (LSKSLAM; LSKCD150+CD48−), cells were labelled with a lineage cocktail (CD3, Ter-119, Gr-1, Mac-1, B220; all antibodies APC-Cy7 conjugated), anti-Sca-1-PB, anti-c-kit-AF647, anti-CD48-FITC and anti-CD150-BV650.
# as §5
# Sorted cells were imaged using an Olympus BX51 microscope.
# [4] = tested on: WBC, LSK and LSKSLAM in PB; test: Mobilization of HSC and progenitors into peripheral blood; format: in vivo, mouse; conditions: R-BC154, s.c., 15 and 30 mins post-injection
# Protocol: For mobilization experiments, all mice received subcutaneous injections at 100 μl/10 gm body weight and PB was harvested by throat bleed using EDTA coated syringes.
smiles,measurement,setting,value
CCN(CC)c1ccc2c(-c3ccc(S(=O)(=O)NCc4cn(C5CC(C(=O)NC(Cc6ccc(OC(=O)N7CCCC7)cc6)C(=O)O)N(S(=O)(=O)c6ccccc6)C5)nn4)cc3S(=O)(=O)[O-])c3ccc(=[N+](CC)CC)cc-3oc2c1 (centres unmarked) [R-BC154],Kd,human integrin α9β1; 1 mM Ca2+/Mg2+,12.7 nM
same,Kd,human integrin α9β1; 1 mM Mn2+,14.4 nM
same,greater affinity for α9β1 than α4β1,human integrin α9β1; Ca2+/Mg2+ conditions,3 fold
same,reduction in binding affinity to α9β1 compared to compound 22,human integrin α9β1; Ca2+/Mg2+ conditions,1.5 fold
same,integrin binding in the absence of cations,"human integrin α9β1; TBS buffer only, LN18 α9β1 cells (FIG. 4)",no integrin binding was observed
same,binding to control cell line lacking integrin expression,[1],Virtually no binding
same,R-BC154 still bound after 60 min,"α4β1 integrin; α4β1, Mn2+, dissociation experiment",greater than 60%
same,kobs,α4β1 integrin; 1 mM Ca2+/Mg2+,5.426 min⁻¹
same,kon,α4β1 integrin; 1 mM Ca2+/Mg2+,0.094 nM⁻¹ min⁻¹
same,koff,"α4β1 integrin; 1 mM Ca2+/Mg2+, fast phase of two-phase dissociation curve",0.717 min⁻¹
same,koff,α4β1 integrin; 1 mM Mn2+,0.014 min⁻¹
same,kobs,α4β1 integrin; 1 mM Mn2+,1.891 min⁻¹
same,kon,α4β1 integrin; 1 mM Mn2+,0.038 nM⁻¹ min⁻¹
same,off-rates for α9β1 compared to α4β1,"α9β1 integrin; Example 2, FIG. 5c",significantly reduced off-rates
same,R-BC154 still bound after 60 min,"α9β1 integrin; α9β1, Mn2+, dissociation experiment",greater than 60%
same,koff,"α9β1 integrin; α9β1 cells, 1 mM Ca2+/Mg2+",0.054 min⁻¹
same,kobs,"α9β1 integrin; α9β1 cells, 1 mM Ca2+/Mg2+",3.117 min⁻¹
same,kon,"α9β1 integrin; α9β1 cells, 1 mM Ca2+/Mg2+",0.061 nM⁻¹ min⁻¹
same,kobs,"α9β1 integrin; α9β1 cells, 1 mM Mn2+",2.035 min⁻¹
same,kon,"α9β1 integrin; α9β1 cells, 1 mM Mn2+",~0.04 nM⁻¹ min⁻¹
same,binding to human cord blood MNC,[2]; 1 mM Ca2+/Mg2+ vs no cations,Divalent cation and dose dependent binding
same,binding to CD34+CD38− cells versus other MNC populations,[2]; activating conditions,greater binding was observed on stem cell enriched CD34^+CD38^− cells compared to lineage-committed CD34^− cells
same,in vivo labelling of BM progenitor cells (LSK) and HSC (LSKSLAM),"[3]; 10 mg kg−1 intravenously, C57 mice, vs un-injected mice",Increased cell-associated fluorescence
same,binding to BM LSK after s.c. treatment,[3]; 30 mins post-s.c.,persistent binding
same,in vivo binding on α4−/−/α9−/− LSK cells,[3]; conditional KO mice injected with R-BC154,No binding
same,"proportion of R-BC154hi LSK and LSKSLAM cells, endosteal vs central BM","[3]; i.v. administration, C57Bl/6 mice",greater proportion of R-BC154^hi cells
same,clearance following i.v. administration,"[3]; i.v., mice",< 5 min
same,binding on LSK in the PB compared to BM,[3]; s.c. administration,Minimal binding
same,"number of WBC, LSK or LSKSLAM in PB",[4],not found to give significant increases
